Source: PMC11945486, “TAS1R2/TAS1R3 Single-Nucleotide Polymorphisms Affect Sweet Taste Receptor Activation by Sweeteners: The SWEET Project” (Nutrients, 2025)

Target: T1, human TAS1R2-P21L (subunit alone) (Homo sapiens, UniProt Q8TE23, P21L)
T1 construct: expressed in transfected cells; host or cells: HEK293T-Gα16gust44
T1 sequence (Q8TE23 20-839 P21L): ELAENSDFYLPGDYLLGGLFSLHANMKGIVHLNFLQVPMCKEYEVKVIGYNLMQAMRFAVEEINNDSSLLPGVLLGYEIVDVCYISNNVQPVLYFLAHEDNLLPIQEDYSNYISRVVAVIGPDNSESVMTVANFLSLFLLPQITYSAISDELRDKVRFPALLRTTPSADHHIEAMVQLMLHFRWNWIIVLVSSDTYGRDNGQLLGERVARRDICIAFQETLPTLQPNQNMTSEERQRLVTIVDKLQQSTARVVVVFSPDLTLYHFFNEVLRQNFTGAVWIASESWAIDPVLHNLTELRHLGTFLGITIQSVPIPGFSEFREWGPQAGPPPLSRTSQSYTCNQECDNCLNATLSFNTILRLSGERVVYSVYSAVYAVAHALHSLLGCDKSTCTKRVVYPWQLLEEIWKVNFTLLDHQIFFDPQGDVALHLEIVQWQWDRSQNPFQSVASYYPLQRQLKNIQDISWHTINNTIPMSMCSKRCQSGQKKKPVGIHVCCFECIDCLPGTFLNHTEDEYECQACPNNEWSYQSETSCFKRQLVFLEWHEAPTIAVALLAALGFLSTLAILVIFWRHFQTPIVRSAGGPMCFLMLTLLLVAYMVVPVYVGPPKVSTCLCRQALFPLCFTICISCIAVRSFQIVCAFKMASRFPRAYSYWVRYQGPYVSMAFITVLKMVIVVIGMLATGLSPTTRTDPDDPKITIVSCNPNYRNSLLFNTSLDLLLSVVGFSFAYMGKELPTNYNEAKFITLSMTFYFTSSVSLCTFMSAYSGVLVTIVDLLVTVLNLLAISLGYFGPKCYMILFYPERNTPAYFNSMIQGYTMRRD
Assay: Calcium mobilisation assay, TAS1R2-P21L subunit alone
Format: cell-based
Description: The coding sequences for TAS1R2 and TAS1R3 were commercially synthesised, and the human codon was optimised for expression in human cells. The coding sequences of human TAS1R2 and TAS1R3 were subcloned and inserted into the mammalian expression vectors pcDNA6/myc-HisA and pcDNA4/myc-HisA (Invitrogen; Thermo Fisher Scientific; Illkirch, France) between the EcoRI and NotI restriction sites, generating the plasmids pcDNA6-TAS1R2 and pcDNA4-TAS1R3, respectively. To increase protein expression in mammalian cells, an upstream start codon was used, which was a sequence called MAX, corresponding to the QBI SP163 element also described in pcDNA4-HisMax (Invitrogen; Thermo Fisher Scientific; Illkirch, France). To measure the expression level of the receptor by immunohistochemistry, we used the FLAG sequence ([…]) in the C-terminal position, which encodes the FLAG tag epitope. […]
The HEK293T cells were kindly provided by Jay P. Slack (Givaudan Flavors Corporation; Cincinnati, OH, USA). […] The fluorescence intensity was measured for 90 s (excitation 488 nm, emission 510 nm) in an automated fluorometric FlexStation®3 Multi-Mode microplate reader (Molecular Devices; San Jose, CA, USA). […] The Ca^2+ changes were expressed as fractional changes in fluorescent light intensity: ΔF/F = (F − F0)/F0, where F was the fluorescent light intensity at each point, and F0 was the value of emitted fluorescent light prior to stimulus application. To calculate dose–response relationships, the changes in fluorescence upon stimulus application were averaged, mock-subtracted and baseline-corrected. […] The half-maximal effective concentrations (EC50 values) and maximal signal amplitudes were calculated using SigmaPlot software (version 15.0) (Systat Software; San Jose, CA, USA).
For in vitro calcium mobilisation assay performed on hTAS1R2-SNPs, hTAS1R3-SNPs and mTAS1R3-I60T, 6 to 7 concentrations were tested for each sweet compound, plus buffer alone. All concentration–receptor combinations were measured in duplicate, and each experiment was repeated at least 4 times (8 wells/concentration). […]

SMILES: C=C(C)[C@@H]1CC=C(/C=N/O)CC1 [Perillartine, perillartine]
- EC50: 149 ± 22.7 µM
- R1 = Variant EC50/WT EC50: 1.7
- Max ΔF/F0 (maximal signal amplitude): 0.33 ± 0.02
